Experimental data: patent US5583248A, “Amino acid derivatives having antiviral activity” (Hoffmann-La Roche Inc., priority 1991, dated 1996)

Key:
[1] = test system: HTLV-III (strain RF) grown in C8166 cells; assay: in vitro antiviral activity (activity against HIV); format: cell-based; conditions: Human immunodeficiency virus 1, C8166, 72 h, read-out: Activity against HIV I50
Description: This assay uses HTLV-III (strain RF) grown in C8166 cells (a human CD4^+ T lymphoblastoid line) using RPM1 1640 medium with bicarbonate buffer, antibiotics and 10% foetal bovine serum.
A suspension of cells is infected with ten times the TCID50 of virus and adsorption is allowed to proceed for 90 minutes at 37° C. The cells are washed three times with medium. The test is carried out in 6 ml tissue culture tubes containing 2×10^5 infected cells in 1.5 ml of medium. Test compounds are dissolved in either aqueous medium or dimethyl sulphoxide, according to solubility, and a […] solution of the test compound is added. The cultures are incubated at 37° C. for 72 hours in a humidified atmosphere containing 5% carbon dioxide in air. The cultures are then centrifuged and an aliquot of the supernatant is solubilized with Nonidet P40 and subjected to an antigen capture assay which uses a primary antiserum with particular reactivity against the viral p24 antigen and a horseradish peroxidase detection system. Colour generation is measured spectrophotometrically and is plotted against the concentration of test compound. The concentration which produces 50% protection is determined (I50).

[2] = molecular target: T1, HIV protease (Human immunodeficiency virus type 1 group M subtype B, UniProt P04585); assay: in vitro inhibition of HIV protease; format: biochemical; conditions: substrate succinyl-Val-Ser-Gln-Asn-Phe-Pro-Ile isobutylamide; citrate buffer pH5.5; 37° C.; 50% inhibition; read-out: HIV protease inhibition I50
T1 construct: HIV protease was expressed in E. coli; made in house; host or cells: E. coli
Description: HIV protease was expressed in E. coli and partially purified from soluble extracts of the bacterium by ammonium sulphate fractionation (0-30%). Protease activity was assayed using the protected heptapeptide succinyl-Val-Ser-Gln-Asn-Phe-Pro-Ile isobutylamide as the substrate. Cleavage of the substrate was quantified by measuring the production of H-Pro-Ile isobutyl-amide by the spectrophotometric assay of N-terminal proline,
1.25 mM of substrate were dissolved in 125 mM of citrate buffer (pH5.5) containing 0.125 mg/ml of Tween 20. […] of a solution of various concentrations of the test compound (dissolved in methanol or dimethyl sulphoxide and diluted with water containing 0.1% Tween 20) and […] of protease were added to […] of the above buffered substrate. Digestion was carried out at 37° C. for a fixed period of time and was terminated by the addition of 1 ml of colour reagent [30 mg/ml of isatin and 1.5 mg/ml of 2-(4-chlorobenzoyl)benzoic acid in 10% acetone in ethanol (vol./vol.)]. The solution was heated in a water bath and then the pigmented residues were re-dissolved in 1 ml of 1% pyrogallol in 33% water in acetone (wt./vol./vol.), The optical density of the solution was measured spectrophotometrically at 599 nm, The formation of H-Pro-Ile isobutylamide in the presence of the test compound was compared with controls and the concentration of test compound required to give 50% inhibition (I50) was determined by means of a graph plotted from the various concentrations of test compound used.

SMILES: CC(C)(C)NC(=O)[C@@H]1CCCC[C@H]1C[C@@H](O)[C@H](Cc1ccccc1)NC(=O)[C@H](CC(N)=O)NC(=O)OCc1ccccc1 [Compound A, 2(S)-[3(S)-[[N-(benzyloxycarbonyl)-L-asparaginyl]amino]-2(R)-hydroxy-4-phenylbutyl]-N-tert.butyl-1(R)-cyclohexanecarboxamide]
- IC50 [1]: 46 nM
- IC50 [2]: 2 nM

SMILES: CC(C)(C)NC(=O)[C@@H]1CCCC[C@@H]1C[C@@H](O)[C@H](Cc1ccccc1)NC(=O)[C@H](CC(N)=O)NC(=O)OCc1ccccc1 [Compound B, 2(R)-[3(S)-[[N-(benzyloxycarbonyl)-L-asparaginyl]amino]-2(R)-hydroxy-4-phenylbutyl]-N-tert.butyl-1(R)-cyclohexanecarboxamide]
- IC50 [1]: 1000 nM
- IC50 [2]: 57 nM

SMILES: CC(C)(C)NC(=O)[C@@H]1CCCC[C@H]1C[C@@H](O)[C@H](Cc1ccccc1)NC(=O)[C@H](CC(N)=O)NC(=O)c1ccc2ccccc2n1 [Compound C, 2(S)-[3(S)-[[N-(2-quinolylcarbonyl)-L-asparaginyl]amino]-2(R)-hydroxy-4-phenylbutyl]-N-tert.butyl-1(R)-cyclohexanecarboxamide]
- IC50 [1]: 4 nM

SMILES: CSC[C@H](NC(=O)OCc1ccccc1)C(=O)N[C@@H](Cc1ccccc1)[C@H](O)C[C@@H]1CCCC[C@H]1C(=O)NC(C)(C)C [Compound D, 2(S)-[3(S)-[[N-(benzyloxycarbonyl)-S-methyl-L-cysteinyl]amino]-2(R)-hydroxy-4-phenylbutyl]-N-tert.butyl-1(R)-cyclohexanecarboxamide]
- IC50 [2]: 1.3 nM

SMILES: COC(=O)C[C@H](NC(=O)OCc1ccccc1)C(=O)N[C@@H](Cc1ccccc1)[C@H](O)C[C@@H]1CCCC[C@H]1C(=O)NC(C)(C)C [Compound E, 2(S)-[3(S)-[[N-(benzyloxycarbonyl)-O-methyl-L-aspartyl]amino]-2(R)-hydroxy-4-phenylbutyl]-N-tert.butyl-1(R)-cyclohexanecarboxamide]
- IC50 [2]: 1.9 nM

SMILES: CC(C)(C)NC(=O)[C@@H]1CCCC[C@H]1C[C@@H](O)[C@H](Cc1ccccc1)NC(=O)[C@H](CC#N)NC(=O)OCc1ccccc1 [Compound F, 2(S)-[3(S)-[[N-(benzyloxycarbonyl)-3-cyano-L-alanyl]amino]-2(R)-hydroxy-4-phenylbutyl]-N-tert.butyl-1(R)-cyclohexanecarboxamide]
- IC50 [2]: 2 nM
